Biological target: T1, KIT V654A (Homo sapiens, UniProt P10721, V654A)
T1 construct: purchased Thermo Fisher Scientific (Life Technologies) SelectScreen
Experiment: SelectScreen LanthaScreen
Type: binding
Settings: read-out: % displacement
Summary of the method: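 NU5455 was profiled across the SelectScreen Broad panel of kinase activity and binding assays. Z'LYTE reactions such as CSF1R ran at apparent Km ATP, while the Adapta CAMK1 assay used ATP listed as 10. Values are given as percent.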

T1 sequence (P10721 26-976 V654A): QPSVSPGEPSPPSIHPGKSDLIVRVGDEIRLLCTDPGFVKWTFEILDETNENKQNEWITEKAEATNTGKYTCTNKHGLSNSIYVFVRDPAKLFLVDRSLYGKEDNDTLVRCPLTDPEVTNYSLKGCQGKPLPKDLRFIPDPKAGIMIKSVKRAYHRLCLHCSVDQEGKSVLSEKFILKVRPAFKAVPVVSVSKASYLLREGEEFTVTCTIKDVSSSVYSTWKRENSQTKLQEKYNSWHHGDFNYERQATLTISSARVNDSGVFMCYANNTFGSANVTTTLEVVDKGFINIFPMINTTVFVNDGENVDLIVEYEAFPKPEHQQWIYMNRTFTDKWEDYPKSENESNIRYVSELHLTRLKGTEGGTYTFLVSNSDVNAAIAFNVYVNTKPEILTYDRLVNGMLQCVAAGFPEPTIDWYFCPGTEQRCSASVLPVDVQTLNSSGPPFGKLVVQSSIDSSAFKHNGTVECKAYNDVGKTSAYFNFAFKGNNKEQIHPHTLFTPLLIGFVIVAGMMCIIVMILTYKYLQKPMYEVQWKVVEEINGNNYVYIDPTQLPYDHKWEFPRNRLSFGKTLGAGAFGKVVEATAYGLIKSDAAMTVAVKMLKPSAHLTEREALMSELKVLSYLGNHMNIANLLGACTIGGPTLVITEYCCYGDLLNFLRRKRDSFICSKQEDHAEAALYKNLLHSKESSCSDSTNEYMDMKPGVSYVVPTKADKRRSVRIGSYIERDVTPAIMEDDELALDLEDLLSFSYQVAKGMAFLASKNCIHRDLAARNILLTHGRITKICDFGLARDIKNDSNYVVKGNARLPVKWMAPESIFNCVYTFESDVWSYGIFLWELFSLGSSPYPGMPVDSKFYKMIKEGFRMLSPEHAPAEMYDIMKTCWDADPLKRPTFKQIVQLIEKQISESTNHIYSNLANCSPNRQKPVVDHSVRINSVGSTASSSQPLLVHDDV

`CN(C(=O)CN1CCOCC1)c1ccc2sc3c(-c4cccc5c(=O)cc(N6CC7CCC(C6)O7)oc45)cccc3c2c1` [NU5455] was tested, and the inhibition at 1 µM was 8.1%.

From paper PMC6934184, “Selective DNA-PKcs inhibition extends the therapeutic index of localized radiotherapy and chemotherapy” (The Journal of Clinical Investigation, 2019)
